Results: ChEMBL document CHEMBL1681683, “Synthesis and biological evaluation of 1,4-benzodiazepin-2-ones with antitrypanosomal activity” (Bioorg Med Chem, 2011)
In brackets after ≈: the same amount, converted by molar mass.

Columns and labels:
[1] = system: Trypanosoma brucei brucei; test: Antitrypanosomal activity against bloodstream form of Trypanosoma brucei brucei […] after 48 hrs by alamar blue assay; type: functional
[2] = system: Trypanosoma brucei brucei; test: Antitrypanosomal activity against bloodstream form of Trypanosoma brucei brucei s427 after 48 hrs by alamar blue assay; type: functional, organism-based; conditions: s427, 48 h
[3] = system: Trypanosoma brucei brucei; test: Resistance factor, ratio of IC50 for TbAT1-deficient bloodstream form of Trypanosoma brucei brucei to IC50 for wild-type bloodstream form of Trypanosoma brucei brucei s427; type: functional
[4] = system: Trypanosoma brucei brucei; test: Resistance factor, ratio of IC50 for Trypanosoma brucei brucei B48 to IC50 for wild-type bloodstream form of Trypanosoma brucei brucei s427; type: functional
[5] = system: Trypanosoma brucei brucei; test: Antitrypanosomal activity against TbAT1-deficient Trypanosoma brucei brucei after 48 hrs by alamar blue assay; type: functional, organism-based
[6] = system: Trypanosoma brucei brucei; test: Antitrypanosomal activity against TbAT1 and HAPT1-deficient Trypanosoma brucei brucei B48 after 48 hrs by alamar blue assay; type: functional, organism-based
[7] = Trypanosoma brucei, 48 h, read-out: IC50
[8] = Trypanosoma brucei, B48, 48 h, read-out: IC50

Row | Structure (SMILES) | MIC [1] | other results
1 | CC(C)[C@@H]1N=C(C2CCCCC2)c2cc(NC(=N)N)ccc2N(Cc2ccc(NC(=N)N)cc2)C1=O | 0.78 µM (≈ 0.381 µg/mL) | –
2 | O=C1Nc2ccccc2C(c2ccccc2)=N[C@H]1Cc1ccccc1 | 6.25 µM (≈ 2.04 µg/mL) | IC50 [2]: 13800 nM; Ratio IC50 [3]: 0.57; Ratio IC50 [4]: 0.67; IC50 [5, 7]: 7840 nM; IC50 [6, 8]: 9230 nM
3 | O=C1Nc2ccccc2C(c2ccccc2)=N[C@@H]1Cc1ccccc1 | 50 µM (≈ 16.3 µg/mL) | –
4 | CC(C)[C@H]1N=C(c2ccccc2)c2ccccc2NC1=O | 200 µM (≈ 55.7 µg/mL) | –
5 | CC(C)[C@@H]1N=C(c2ccccc2)c2ccccc2NC1=O | 100 µM (≈ 27.8 µg/mL) | –
6 | CC(C)C1=NCC(=O)Nc2ccccc21 | > 400 µM | –
7 | CC(C)C1=N[C@@H](Cc2ccccc2)C(=O)Nc2ccccc21 | 50 µM (≈ 14.6 µg/mL) | –
8 | CC(C)[C@@H]1N=C(C2CCCCC2)c2ccccc2NC1=O | 25 µM (≈ 7.11 µg/mL) | –
9 | CC(C)[C@@H]1N=C(C2CCCCC2)c2cc([N+](=O)[O-])ccc2NC1=O | 12.5 µM (≈ 4.12 µg/mL) | –
10 | O=C1Nc2ccccc2C(C2CCCCC2)=N[C@H]1Cc1ccccc1 | 12.5 µM (≈ 4.16 µg/mL) | –
11 | O=C1Nc2ccccc2C(c2ccccn2)=N[C@H]1Cc1ccccc1 | 100 µM (≈ 32.7 µg/mL) | –
12 | CC(C)[C@@H]1N=C(c2ccccc2)c2ccccc2N(C)C1=O | 100 µM (≈ 29.2 µg/mL) | –
13 | CC(C)[C@@H]1N=C(c2ccccc2)c2ccccc2N(Cc2ccccc2)C1=O | 200 µM (≈ 73.7 µg/mL) | –
14 | CC(C)[C@@H]1N=C(c2ccccc2)c2ccccc2N(Cc2ccccc2-c2ccccc2)C1=O | 12.5 µM (≈ 5.56 µg/mL) | –
15 | CC(C)[C@@H]1N=C(c2ccccc2)c2ccccc2N(Cc2cccc3cccnc23)C1=O | 25 µM (≈ 10.5 µg/mL) | –
16 | CC(C)[C@H]1N=C(c2ccccc2)c2ccccc2N(C)C1=O | 200 µM (≈ 58.5 µg/mL) | –
17 | CC(C)[C@H]1N=C(c2ccccc2)c2ccccc2N(Cc2ccccc2)C1=O | 12.5 µM (≈ 4.61 µg/mL) | –
18 | CN1C(=O)[C@H](Cc2ccccc2)N=C(c2ccccc2)c2ccccc21 | 50 µM (≈ 17 µg/mL) | –
19 | O=C1[C@H](Cc2ccccc2)N=C(c2ccccc2)c2ccccc2N1Cc1ccccc1 | 6.25 µM (≈ 2.6 µg/mL) | –
20 | O=C1[C@H](Cc2ccccc2)N=C(c2ccccc2)c2ccccc2N1Cc1ccc(-c2ccccc2)cc1 | 6.25 µM (≈ 3.08 µg/mL) | –

Row | Structure (SMILES) | MIC [1] | other results
21 | O=C1[C@H](Cc2ccccc2)N=C(c2ccccc2)c2ccccc2N1Cc1cccc(-c2ccccc2)c1 | 25 µM (≈ 12.3 µg/mL) | –
22 | O=C1[C@H](Cc2ccccc2)N=C(c2ccccc2)c2ccccc2N1Cc1ccccc1-c1ccccc1 | 6.25 µM (≈ 3.08 µg/mL) | –
23 | O=C1[C@H](Cc2ccccc2)N=C(c2ccccc2)c2ccccc2N1Cc1cccc2cccnc12 | 25 µM (≈ 11.7 µg/mL) | –
24 | N#CCN1C(=O)[C@H](Cc2ccccc2)N=C(c2ccccc2)c2ccccc21 | 3.1 µM (≈ 1.13 µg/mL) | –
25 | O=C(O)CN1C(=O)[C@H](Cc2ccccc2)N=C(c2ccccc2)c2ccccc21 | 50 µM (≈ 19.2 µg/mL) | –
26 | CN1C(=O)[C@@H](Cc2ccccc2)N=C(c2ccccc2)c2ccccc21 | 400 µM (≈ 136 µg/mL) | –
27 | O=C1[C@@H](Cc2ccccc2)N=C(c2ccccc2)c2ccccc2N1Cc1ccccc1 | 12.5 µM (≈ 5.21 µg/mL) | –
28 | O=C1[C@H](COCc2ccccc2)N=C(c2ccccc2)c2ccccc2N1Cc1ccc(-c2ccccc2)cc1 | 25 µM (≈ 13.1 µg/mL) | –
29 | O=C1[C@H](COCc2ccccc2)N=C(c2ccccc2)c2ccccc2N1Cc1cccc(-c2ccccc2)c1 | 25 µM (≈ 13.1 µg/mL) | –
30 | O=C1[C@H](COCc2ccccc2)N=C(c2ccccc2)c2ccccc2N1Cc1cccc2cccnc12 | 12.5 µM (≈ 6.22 µg/mL) | –
31 | CC(C)C1=NCC(=O)N(C)c2ccccc21 | 400 µM (≈ 86.5 µg/mL) | –
32 | CC(C)C1=N[C@@H](Cc2ccccc2)C(=O)N(C)c2ccccc21 | 25 µM (≈ 7.66 µg/mL) | –
33 | O=C1[C@H](Cc2ccccc2)N=C(C2CCCCC2)c2ccccc2N1Cc1ccccc1 | 6.25 µM (≈ 2.64 µg/mL) | –
34 | Nc1ccc(CN2C(=O)[C@H](Cc3ccccc3)N=C(c3ccccc3)c3ccccc32)cc1 | 12.5 µM (≈ 5.39 µg/mL) | –
35 | Nc1cccc(CN2C(=O)[C@H](Cc3ccccc3)N=C(c3ccccc3)c3ccccc32)c1 | 6.25 µM (≈ 2.7 µg/mL) | –
36 | Nc1ccccc1CN1C(=O)[C@H](Cc2ccccc2)N=C(c2ccccc2)c2ccccc21 | 6.25 µM (≈ 2.7 µg/mL) | –
37 | CC(C)[C@@H]1N=C(C2CCCCC2)c2ccccc2N(Cc2ccc(N)cc2)C1=O | 6.25 µM (≈ 2.43 µg/mL) | –
38 | CC(C)[C@@H]1N=C(C2CCCCC2)c2cc(N)ccc2N(Cc2ccc(N)cc2)C1=O | 6.25 µM (≈ 2.53 µg/mL) | –
39 | Nc1ccc(CN2C(=O)[C@H](Cc3ccccc3)N=C(C3CCCCC3)c3ccccc32)cc1 | 6.25 µM (≈ 2.73 µg/mL) | –
40 | Nc1cccc(CN2C(=O)[C@H](Cc3ccccc3)N=C(C3CCCCC3)c3ccccc32)c1 | 6.25 µM (≈ 2.73 µg/mL) | –

Row | Structure (SMILES) | MIC [1] | other results
41 | Nc1ccc(CN2C(=O)[C@H](Cc3ccccc3)N=C(c3ccccn3)c3ccccc32)cc1 | 25 µM (≈ 10.8 µg/mL) | –
42 | CC(C)[C@@H]1N=C(C2CCCCC2)c2cc(N)ccc2NC1=O | 100 µM (≈ 29.9 µg/mL) | –
43 | N=C(N)Nc1ccc(CN2C(=O)[C@H](Cc3ccccc3)N=C(c3ccccc3)c3ccccc32)cc1 | 0.78 µM (≈ 0.369 µg/mL) | IC50 [2]: 490 nM; Ratio IC50 [3]: 1.29; Ratio IC50 [4]: 2.68; IC50 [5, 7]: 640 nM; IC50 [6, 8]: 1310 nM
44 | N=C(N)Nc1cccc(CN2C(=O)[C@H](Cc3ccccc3)N=C(c3ccccc3)c3ccccc32)c1 | 0.78 µM (≈ 0.369 µg/mL) | IC50 [2]: 270 nM; Ratio IC50 [3]: 1.45; Ratio IC50 [4]: 3.52; IC50 [5, 7]: 390 nM; IC50 [6, 8]: 940 nM
45 | N=C(N)Nc1ccccc1CN1C(=O)[C@H](Cc2ccccc2)N=C(c2ccccc2)c2ccccc21 | 1.56 µM (≈ 0.739 µg/mL) | –
46 | CC(C)[C@@H]1N=C(C2CCCCC2)c2ccccc2N(Cc2ccc(NC(=N)N)cc2)C1=O | 6.25 µM (≈ 2.7 µg/mL) | –
47 | N=C(N)Nc1ccc(CN2C(=O)[C@H](Cc3ccccc3)N=C(C3CCCCC3)c3ccccc32)cc1 | 0.78 µM (≈ 0.374 µg/mL) | –
48 | N=C(N)Nc1cccc(CN2C(=O)[C@H](Cc3ccccc3)N=C(C3CCCCC3)c3ccccc32)c1 | 1.56 µM (≈ 0.748 µg/mL) | IC50 [2]: 330 nM; Ratio IC50 [3]: 1.53; Ratio IC50 [4]: 2.8; IC50 [5, 7]: 510 nM; IC50 [6, 8]: 930 nM
49 | N=C(N)Nc1ccc(CN2C(=O)[C@H](Cc3ccccc3)N=C(c3ccccn3)c3ccccc32)cc1 | 3.13 µM (≈ 1.49 µg/mL) | –
50 | CC(C)[C@@H]1N=C(C2CCCCC2)c2cc(NC(=N)N)ccc2NC1=O | 1.56 µM (≈ 0.533 µg/mL) | –
51 | N=C(N)NCCC[C@@H]1N=C(c2ccccc2)c2ccccc2NC1=O | 400 µM (≈ 134 µg/mL) | –
52 | O=C(CN1C(=O)[C@H](Cc2ccccc2)N=C(c2ccccc2)c2ccccc21)N1CCN(c2ncccn2)CC1 | 12.5 µM (≈ 6.63 µg/mL) | –
53 | O=C(CN1C(=O)[C@H](Cc2ccccc2)N=C(c2ccccc2)c2ccccc21)N1CCN(c2ccccn2)CC1 | 6.25 µM (≈ 3.31 µg/mL) | –
54 | O=C(CN1C(=O)[C@H](Cc2ccccc2)N=C(c2ccccc2)c2ccccc21)N1CCNCC1 | 12.5 µM (≈ 5.66 µg/mL) | –
55 | Nc1nc(N)nc(Nc2ccc([As]3SCC(CO)S3)cc2)n1 (stereo not given) [MELARSOPROL] | – | IC50 [5]: Not Active; IC50 [6]: Not Active
56 | N=C(N)c1ccc(OCCCCCOc2ccc(C(=N)N)cc2)cc1 [PENTAMIDINE] | – | IC50 [5]: Not Active; IC50 [6]: Not Active
57 | O=C1CN=C(c2ccccc2)c2ccccc2N1 [RO-052921] | 400 µM (≈ 94.5 µg/mL) | –
58 | Cc1ccc(C(=O)Nc2ccc(S(=O)(=O)O)c3cc(S(=O)(=O)O)cc(S(=O)(=O)O)c23)cc1NC(=O)c1cccc(NC(=O)Nc2cccc(C(=O)Nc3cc(C(=O)Nc4ccc(S(=O)(=O)O)c5cc(S(=O)(=O)O)cc(S(=O)(=O)O)c45)ccc3C)c2)c1 [SURAMIN HEXASODIUM] | 0.13 µM | –
